Reference: patent US5958966A, “Treatment of aberrant cellular states with biomodulators” (University of New Mexico, priority 1995, dated 1999)
“Also recorded” adds a separate entry of the source.

Columns and labels:
[1] = test system: canine glioma (CG) cells; assay: cell surface oligosaccharide display of canine glioma cells (lectin binding, Scatchard, Gibb's Free Energy); format: cell-based; conditions: control 14.9 kcal
Excerpt: Taken together these affinity differences account for almost 10 kcal of additional binding energy retrievable from interactions in the case of the IMR-90s which is unavailable to the CGs. […] This treatment regimen results in an increase in the Tg of the cells as well as changes in the proton linewidth of unfrozen water (shown below). […] This display more closely resembles that of the growth regulated IMR-90s. It should be noted that the actual lines on these figures are visual estimates however, the data in the boxes are calculated values. It is these values that are used to estimate the GFE for comparison purposes.
(§1) The cell surface oligosaccharide display was assessed by methods developed previously. In brief, cells from a sub-culturing were aliquotted into 96 well trays at 5×10^5 cells per ml, 100 μL aliquots. After 16 hours of culture the cells were washed, fixed, and blocked with 0.1% BSA/PBS. Optimal lectin concentrations (5 μg/ml)were used to give 80 to 90% saturation of the available sites. Three carbohydrate ligands at 10 μg concentrations in triplicate or quadruplicate were then used to prepare competition curves for the lectin binding. The Bound over Free (B/F) ratio was calculated and the Ligand microprocessor program was used to determine the optimal fit of the data to a polynomial generated model. The Gibb's Free Energy (GFE) was calculated from the Scatchard data on the competition assay by the following equation: GFE=-RT 1n Kequit. The proton NMR linewidth measurements were conducted as described previously.

[2] = test system: canine glioma (CG) cells; assay: proton NMR T-2* linewidth of canine glioma cells; format: cell-based; set-up: T-2* linewidth / T-2* linewidth after treatment withdrawal / T-2* linewidth after t-butanol extraction: unit not given here; conditions: for T-2* linewidth after treatment withdrawal: 4 weeks treatment then 1 week without, mean ± SD of 3; for T-2* linewidth after t-butanol extraction: treated CG cells
Description: The cells used for all these experiments are between passage 30 and passage 75.
as §1, with “After 16 hours of culture the cells were washed, fixed, and blocked with 0.1% BSA/PBS.” left out

[3] = test system: plaque forming cells (splenocytes); assay: effect of swainsonine on humoral immunity (PFC assay); format: in vivo, mouse; conditions: for PFC versus control in words: listed as Sw
Description: The plaque forming cell (PFC) assay was done according to the method developed by Jerne and Nordin (1963). The splenocytes were washed in serum-free RPMI-1640 and brought to a final concentration of 1×10^6 cell/100 μl. Sheep red blood cells (sRBC), from The Colorado Serum Company, were labelled with protein A from Staphylococcus aureus (Sigma). The sRBC's were washed 3 times with saline (0.85% NaCl), the packed cells were then incubated with 1 ml of protein A (0.5 mg/ml saline) and 10 ml of saline containing 0.1 μl of CrCl3 (35% solution) (Aldrich), for 20 minutes. The sRBC's were then washed 3 times with PBS and suspended in PBS to make a 30% solution. The sRBC's (50 μl) and splenocytes (100 μl) were combined with SeaPlaque agarose (FMC Corporation) and smeared on a 75 mm×50 mm microscope slide to form a lawn of target red blood cells with uniformly dispersed effector cells. Each sample was done in triplicate. The agarose was allowed to harden and the slides were placed in trays containing serum-free RPMI-1640. The trays were incubated at 37° C. in a CO2 incubator for 90 min. After incubation the slides were placed in slide holders containing normal saline for a wash step. The rabbit/anti-mouse antibody (DAKO Corporation) was diluted 1:400 with serum free RPMI-1640 and added to the slide trays. Following another 90 min. incubation at 37° C. in a CO2 incubator, the slides were again washed. Fresh frozen guinea pig complement (GIBCO) (2%) in serum-free RPMI-1640 was added to the slide trays and incubated for another 60 to 90 min. depending on the time necessary for plaque formation. The number of plaques were counted and the results reported as number of plaque forming cells per 1×10^6 splenocytes.
Mice were pretreated for 3 weeks with Sw (0.1 μg and 0.01 μg), and then received B16 cells. At 3 time points post tumor cell injection (day 0, 7 and 14), the mice were sacrificed and the spleens were removed. The cells were then used to determine the effect of Sw on humoral immunity. […] The presence of a day 7 tumor caused a return to baseline for all the groups. A significant difference (p=0.001) was seen on day 14 post tumor injection with the mice treated with 0.01 μg Sw.

[4] = test system: lymphoid IL-2R / LAK; conditions: Bowlin et al. and further work; listed as Sw; cited from earlier work
[5] = test system: plaque forming cells; conditions: cited from earlier work
[6] = test system: α-mannosidase II; conditions: cited from earlier work
[7] = test system: solid tumor models; conditions: Dennis 1986, 1989, 1990; cited from earlier work

O[C@H]1[C@H]2[C@H](O)CCCN2C[C@H]1O [Swainsonine, swainsonine]
Gibb's Free Energy ([1]; 2 cycles): 15.2 kcal | Gibb's Free Energy ([1]; 4 cycles): 20.5 kcal | Gibb's Free Energy ([1]; 7 cycles): 21.9 kcal | T-2* linewidth after treatment withdrawal ([2]; 213 k): 520 ± 26 | T-2* linewidth after treatment withdrawal ([2]; 223 k): 510 ± 18 | T-2* linewidth after treatment withdrawal ([2]; 233 k): 430 ± 15 | T-2* linewidth after treatment withdrawal ([2]; 243 k): 360 ± 10 | linewidth after withdrawal versus untreated control ([2]; 4 weeks treatment, 1 week withdrawal): still significantly different from control values | linewidth change ([2]; CG cells, biomodulator treatment versus control, listed as Sw): significant (P>0.01) decreases in linewidth; also recorded: higher level of linewidth reduction than the PWM treatment | T-2* linewidth ([2]; Four week of treatment, 213 k, mean ± SD of triplicate): 480 ± 35 | T-2* linewidth ([2]; Four week of treatment, 223 k, mean ± SD of triplicate): 330 ± 40 | T-2* linewidth ([2]; Four week of treatment, 233 k, mean ± SD of triplicate): 300 ± 8 | T-2* linewidth ([2]; Four week of treatment, 243 k, mean ± SD of triplicate): 230 ± 10 | T-2* linewidth ([2]; One week of treatment, 213 k): 580 | T-2* linewidth ([2]; One week of treatment, 223 k): 325 | T-2* linewidth ([2]; One week of treatment, 233 k): 285 | T-2* linewidth ([2]; One week of treatment, 243 k): 265 | T-2* linewidth after t-butanol extraction ([2]; 213 k, extracted control 367 ± 15): 316 ± 33 | T-2* linewidth after t-butanol extraction ([2]; 223 k, extracted control 337 ± 29): 271 ± 13 | T-2* linewidth after t-butanol extraction ([2]; 233 k, extracted control 299 ± 30): 243 ± 29 | T-2* linewidth after t-butanol extraction ([2]; 243 k, extracted control 229 ± 9): 194 ± 7 | increase in plaque forming cells ([3]; 0.01 μg Sw, before tumor, p=0.001): 89% | increase in PFC over mice without Sw with day 14 tumors ([3]; 0.01 μg Sw, day 14): 108% | increase in PFC over mice without tumors or treatment ([3]; 0.01 μg Sw, day 14): 144% | PFC versus control in words ([3]; 0.1 μg Sw without tumor (p=0.04)): not as significantly different from the control group; also recorded: significant changes in the formation of plaques prior to tumor exposure | PFC versus control in words ([3]; 0.1 μg Sw, day 14 (p=0.13)): not a significant difference between the controls and these treated mice; also recorded: even higher levels | effect on IL-2R expression, IL-2 induced proliferation and LAK induction [4]: augmented lymphoid IL-2R expression and IL-2 induced proliferation following mitogenic stimulation; also recorded: augmented the LAK induction at normally sub-optimal stimulation doses | PFC numbers, SW alone ([5]; SW alone): no changes in PFC numbers | antibody formation after immunosuppressive factor ([5]; Sw 3.7-100 mg/kg i.p. 5 days): return to normal levels of antibody production | inhibition of α-mannosidase II / anticancer effects [6]: known to have anticancer effects possibly mediated through its inhibition of α-mannosidase II | growth in other solid tumor models [7]: delay growth in several other solid tumor models
